Measurements reported in ChEMBL document CHEMBL3286359, “Synthesis and SAR of substituted pyrazolo[1,5-a]quinazolines as dual mGlu(2)/mGlu(3) NAMs” (Bioorg Med Chem Lett, 2014).
Calls of active or inactive are those of the source. The calls are words filed in the database; no cut-off is given here.

Tests used:
Type in all cases: functional, cell-based
[1] = molecular target: Metabotropic glutamate receptor 3 (Rattus norvegicus, UniProt P31422); assay: Inhibition of rat mGlu3 receptor transfected in HEK293 cells coexpressing mouse Galpha15 assessed as decrease in glutamate-induced calcium signaling by fluorescence plate reader analysis in presence of glutamate at EC87 concentration
[2] = molecular target: Metabotropic glutamate receptor 2 (Rattus norvegicus, UniProt P31421); assay: Inhibition of rat mGlu2 receptor transfected in HEK293 cells coexpressing mouse Galpha15 assessed as decrease in glutamate-induced calcium signaling by fluorescence plate reader analysis in presence of glutamate at EC76 concentration
[3] = molecular target: Metabotropic glutamate receptor 3 (Rattus norvegicus) (UniProt P31422); assay: Inhibition of rat mGlu3 receptor transfected in HEK293 cells coexpressing mouse Galpha15 assessed as decrease in glutamate-induced calcium signaling at 3 uM by fluorescence plate reader analysis in presence of glutamate at EC87 concentration
[4] = molecular target: Metabotropic glutamate receptor 3 (Rattus norvegicus) (UniProt P31422); assay: Positive allosteric modulatory activity at rat mGlu3 receptor transfected in HEK293 cells co-expressing mouse Galpha15 assessed as potentiation of glutamate-dependent calcium signaling at 3 uM by fluorescence plate reader analysis in presence of glutamate at EC20 concentration
[5] = molecular target: Metabotropic glutamate receptor 2 (Rattus norvegicus) (UniProt P31421); assay: Positive allosteric modulatory activity at rat mGlu2 receptor transfected in HEK293 cells co-expressing mouse Galpha15 assessed as potentiation of glutamate-dependent calcium signaling at 3 uM by fluorescence plate reader analysis in presence of glutamate at EC20 concentration
[6] = molecular target: Metabotropic glutamate receptor 2 (Rattus norvegicus) (UniProt P31421); assay: Inhibition of rat mGlu2 receptor transfected in HEK293 cells coexpressing mouse Galpha15 assessed as decrease in glutamate-induced calcium signaling at 3 uM by fluorescence plate reader analysis in presence of glutamate at EC76 concentration
[7] = molecular target: Metabotropic glutamate receptor 2 (Rattus norvegicus) (UniProt P31421); assay: Inhibition of rat mGlu2 receptor transfected in HEK293 cells coexpressing mouse Galpha15 assessed as decrease in glutamate-induced calcium signaling at 1 uM by fluorescence plate reader analysis in presence of glutamate at EC76 concentration
[8] = molecular target: Metabotropic glutamate receptor 3 (Rattus norvegicus) (UniProt P31422); assay: Inhibition of rat mGlu3 receptor transfected in HEK293 cells coexpressing mouse Galpha15 assessed as decrease in glutamate-induced calcium signaling at 1 uM by fluorescence plate reader analysis in presence of glutamate at EC87 concentration

Metabotropic glutamate receptor 3 (Rattus norvegicus), sequence (P31422 23-879 limits assumed): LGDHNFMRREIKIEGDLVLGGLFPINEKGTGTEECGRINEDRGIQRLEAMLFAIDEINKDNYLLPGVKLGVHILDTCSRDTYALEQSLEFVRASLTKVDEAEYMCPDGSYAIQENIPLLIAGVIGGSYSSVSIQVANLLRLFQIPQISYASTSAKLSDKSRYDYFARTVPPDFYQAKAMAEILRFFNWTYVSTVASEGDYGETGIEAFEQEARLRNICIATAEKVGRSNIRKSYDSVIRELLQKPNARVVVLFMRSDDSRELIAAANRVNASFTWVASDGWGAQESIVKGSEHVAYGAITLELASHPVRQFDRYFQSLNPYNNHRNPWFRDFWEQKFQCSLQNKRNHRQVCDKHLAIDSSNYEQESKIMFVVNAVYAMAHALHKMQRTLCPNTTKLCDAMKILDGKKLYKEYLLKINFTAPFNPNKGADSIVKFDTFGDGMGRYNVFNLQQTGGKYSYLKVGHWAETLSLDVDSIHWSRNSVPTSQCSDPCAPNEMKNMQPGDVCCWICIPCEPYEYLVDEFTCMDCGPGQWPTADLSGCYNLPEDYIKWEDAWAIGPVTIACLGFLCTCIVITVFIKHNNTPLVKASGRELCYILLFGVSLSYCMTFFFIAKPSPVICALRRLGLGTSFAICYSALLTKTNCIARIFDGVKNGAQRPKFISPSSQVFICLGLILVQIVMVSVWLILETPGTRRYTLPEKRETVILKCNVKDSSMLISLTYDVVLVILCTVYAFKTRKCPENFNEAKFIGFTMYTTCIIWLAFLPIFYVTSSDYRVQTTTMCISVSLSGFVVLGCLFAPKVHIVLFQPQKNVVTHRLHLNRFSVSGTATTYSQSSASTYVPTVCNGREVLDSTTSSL
Metabotropic glutamate receptor 3, sequence (P31422 whole entry): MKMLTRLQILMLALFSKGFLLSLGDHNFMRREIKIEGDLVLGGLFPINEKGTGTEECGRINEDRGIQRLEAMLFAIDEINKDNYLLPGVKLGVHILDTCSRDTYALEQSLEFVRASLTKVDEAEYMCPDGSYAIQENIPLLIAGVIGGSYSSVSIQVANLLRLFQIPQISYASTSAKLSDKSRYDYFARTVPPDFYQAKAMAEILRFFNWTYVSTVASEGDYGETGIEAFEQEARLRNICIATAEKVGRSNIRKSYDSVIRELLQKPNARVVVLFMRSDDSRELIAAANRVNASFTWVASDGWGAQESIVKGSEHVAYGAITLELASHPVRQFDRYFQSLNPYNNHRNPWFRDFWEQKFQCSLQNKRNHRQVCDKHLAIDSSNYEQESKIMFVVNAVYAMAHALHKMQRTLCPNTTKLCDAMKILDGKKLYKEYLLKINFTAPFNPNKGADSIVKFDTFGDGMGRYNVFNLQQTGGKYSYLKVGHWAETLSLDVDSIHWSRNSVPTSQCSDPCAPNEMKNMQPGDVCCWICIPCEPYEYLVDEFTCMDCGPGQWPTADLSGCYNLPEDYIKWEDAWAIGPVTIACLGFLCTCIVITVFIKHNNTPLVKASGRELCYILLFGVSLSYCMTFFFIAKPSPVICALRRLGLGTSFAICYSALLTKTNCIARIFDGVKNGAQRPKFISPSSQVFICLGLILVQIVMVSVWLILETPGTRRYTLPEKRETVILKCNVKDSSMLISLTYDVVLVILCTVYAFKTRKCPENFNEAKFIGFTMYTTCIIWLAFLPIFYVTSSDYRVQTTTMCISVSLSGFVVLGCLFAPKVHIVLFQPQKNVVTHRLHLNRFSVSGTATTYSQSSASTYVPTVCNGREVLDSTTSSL
Metabotropic glutamate receptor 2, sequence (P31421 whole entry): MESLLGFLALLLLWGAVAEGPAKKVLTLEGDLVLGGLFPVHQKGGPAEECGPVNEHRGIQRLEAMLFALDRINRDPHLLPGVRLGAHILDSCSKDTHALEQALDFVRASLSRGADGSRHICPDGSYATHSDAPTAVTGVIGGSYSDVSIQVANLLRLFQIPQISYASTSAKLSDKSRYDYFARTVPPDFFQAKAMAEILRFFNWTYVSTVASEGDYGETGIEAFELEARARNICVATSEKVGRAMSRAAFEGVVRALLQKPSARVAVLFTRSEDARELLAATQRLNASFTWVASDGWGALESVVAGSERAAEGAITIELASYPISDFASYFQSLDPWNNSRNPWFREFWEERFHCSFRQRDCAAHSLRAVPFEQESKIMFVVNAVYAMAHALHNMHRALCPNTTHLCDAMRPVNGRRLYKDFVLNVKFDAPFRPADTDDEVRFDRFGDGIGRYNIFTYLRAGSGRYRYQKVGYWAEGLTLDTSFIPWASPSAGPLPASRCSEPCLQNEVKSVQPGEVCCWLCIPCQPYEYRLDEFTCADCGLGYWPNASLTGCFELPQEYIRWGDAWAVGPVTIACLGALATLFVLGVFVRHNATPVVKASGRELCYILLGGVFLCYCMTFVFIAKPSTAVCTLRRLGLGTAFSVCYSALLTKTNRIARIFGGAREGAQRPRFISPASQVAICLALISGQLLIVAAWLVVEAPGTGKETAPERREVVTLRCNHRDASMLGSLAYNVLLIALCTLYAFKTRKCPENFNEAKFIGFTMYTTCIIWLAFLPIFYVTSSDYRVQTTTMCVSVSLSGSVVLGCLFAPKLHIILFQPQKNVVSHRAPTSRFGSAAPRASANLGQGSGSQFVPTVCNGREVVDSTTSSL
Metabotropic glutamate receptor 2 (Rattus norvegicus), sequence (P31421 19-872 limits assumed): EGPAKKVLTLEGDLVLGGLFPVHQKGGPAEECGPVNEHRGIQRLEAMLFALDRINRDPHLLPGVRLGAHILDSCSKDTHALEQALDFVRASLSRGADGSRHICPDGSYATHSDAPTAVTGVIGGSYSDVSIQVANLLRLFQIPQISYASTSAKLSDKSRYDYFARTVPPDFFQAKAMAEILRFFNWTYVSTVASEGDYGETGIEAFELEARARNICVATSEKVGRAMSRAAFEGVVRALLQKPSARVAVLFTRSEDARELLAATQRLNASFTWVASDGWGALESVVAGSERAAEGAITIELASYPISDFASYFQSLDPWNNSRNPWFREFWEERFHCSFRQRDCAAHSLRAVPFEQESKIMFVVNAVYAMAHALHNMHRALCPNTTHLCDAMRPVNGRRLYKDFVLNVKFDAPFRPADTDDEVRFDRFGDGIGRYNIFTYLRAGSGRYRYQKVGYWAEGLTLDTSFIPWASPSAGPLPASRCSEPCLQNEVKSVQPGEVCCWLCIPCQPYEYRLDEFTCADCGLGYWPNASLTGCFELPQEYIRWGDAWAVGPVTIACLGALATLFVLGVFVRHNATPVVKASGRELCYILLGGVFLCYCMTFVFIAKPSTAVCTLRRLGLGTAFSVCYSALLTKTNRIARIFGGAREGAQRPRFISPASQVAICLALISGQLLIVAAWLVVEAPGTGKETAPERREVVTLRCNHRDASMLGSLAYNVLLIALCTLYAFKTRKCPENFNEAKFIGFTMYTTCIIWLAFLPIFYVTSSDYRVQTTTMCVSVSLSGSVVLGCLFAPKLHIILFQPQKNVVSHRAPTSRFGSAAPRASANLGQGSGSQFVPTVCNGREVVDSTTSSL

| IC50 [1] | IC50 [2] | inhibition [3] | Activity [4] | Activity [5] | inhibition [6] | inhibition [7] | inhibition [8] | SMILES |
| --- | --- | --- | --- | --- | --- | --- | --- | --- |
| > 10000 nM | > 10000 nM | – | – | – | – | – | – | CC(=O)n1c(=O)c2ccc(-c3cccnc3)cc2n2nc(-c3ccccc3)cc12 |
| – | – | 28% | inactive | inactive | 8% | – | – | Cn1c(=O)c2ccc(-c3ccccc3)cc2n2nc(-c3cccc(Br)c3)cc12 |
| > 10000 nM | > 10000 nM | – | – | – | – | – | – | Cn1c(=O)c2ccc(-c3ccc4cn[nH]c4c3)cc2n2nc(-c3ccccc3)cc12 |
| 884 nM | – | – | inactive | inactive | – | – | – | Cn1c(=O)c2ccc(-c3cccc(S(N)(=O)=O)c3)cc2n2nc(-c3ccccc3)cc12 |
| 1990 nM | 3950 nM | – | inactive | inactive | – | – | – | Cn1c(=O)c2ccc(-c3cccc(S(N)(=O)=O)c3)cc2n2nc(-c3ccc(F)cc3)cc12 |
| > 10000 nM | > 10000 nM | – | inactive | inactive | – | – | – | COc1cccc(-c2cc3n(C)c(=O)c4ccc(C)cc4n3n2)c1 |
| – | – | 34% | inactive | inactive | 0% | – | – | COc1ccc(-c2ccc3c(=O)n(C)c4cc(-c5cccc(C)c5)nn4c3c2)cc1 |
| 67 nM | 427 nM | – | inactive | inactive | – | – | – | Cn1c(=O)c2ccc(-c3cccnc3)cc2n2nc(-c3ccc(F)cc3)cc12 |
| – | – | 16% | – | – | 0% | – | – | Cn1c(=O)c2ccc(-c3ccc4nccnc4c3)cc2n2nc(-c3ccccc3)cc12 |
| > 10000 nM | > 10000 nM | – | inactive | inactive | – | – | – | Cc1ccc2c(=O)n(C)c3cc(-c4ccc(F)cc4)nn3c2c1 |
| > 10000 nM | > 10000 nM | – | inactive | inactive | – | – | – | Cn1c(=O)c2ccc(-c3ccccc3)cc2n2nc(-c3ccccc3)cc12 |
| – | – | 64% | inactive | inactive | 12% | – | – | Cn1c(=O)c2ccc(-c3ccccc3)cc2n2nc(-c3ccc(F)cc3)cc12 |
| – | – | 0% | inactive | inactive | – | – | – | COc1ccc(-c2ccc3c(=O)n(C)c4cc(-c5ccccc5)nn4c3c2)cc1 |
| – | – | 21% | inactive | inactive | 6% | 60% | 60% | COc1ccc(-c2ccc3c(=O)n(C)c4cc(-c5ccc(Cl)cc5)nn4c3c2)cc1 |
| – | – | 2% | inactive | inactive | 6% | – | – | COc1ccc(-c2ccc3c(=O)n(C)c4cc(-c5cccc(F)c5)nn4c3c2)cc1 |
| > 10000 nM | > 10000 nM | – | inactive | inactive | – | – | – | Cn1c(=O)c2ccc(-c3cccc(S(N)(=O)=O)c3)cc2n2nc(-c3cccc(F)c3)cc12 |
| 1180 nM | 3120 nM | – | inactive | inactive | – | – | – | COc1cccc(-c2cc3n(C)c(=O)c4ccc(-c5cccnc5)cc4n3n2)c1 |
| 696 nM | 1390 nM | – | inactive | inactive | – | – | – | COc1cccc(-c2cc3n(C)c(=O)c4ccc(-c5cccc(S(N)(=O)=O)c5)cc4n3n2)c1 |
| > 10000 nM | > 10000 nM | – | inactive | inactive | – | – | – | COc1ccc(-c2ccc3c(=O)n(C)c4cc(-c5ccc(F)cc5)nn4c3c2)cc1 |
| 3150 nM | 4650 nM | – | – | – | – | – | – | O=c1c2ccc(-c3cccnc3)cc2n2nc(-c3ccccc3)cc2n1CCO |
| 4510 nM | > 10000 nM | – | – | – | – | – | – | Cn1c(=O)c2ccc(-c3ccc4ccncc4c3)cc2n2nc(-c3ccccc3)cc12 |
| – | – | 31% | inactive | inactive | 4% | 60% | 60% | Cn1c(=O)c2ccc(-c3ccccc3)cc2n2nc(-c3ccc(Cl)cc3)cc12 |
| 530 nM | 1790 nM | – | inactive | inactive | – | – | – | Cc1cccc(-c2cc3n(C)c(=O)c4ccc(-c5cccnc5)cc4n3n2)c1 |

| IC50 [1] | IC50 [2] | inhibition [3] | Activity [4] | Activity [5] | inhibition [6] | inhibition [7] | inhibition [8] | SMILES |
| --- | --- | --- | --- | --- | --- | --- | --- | --- |
| – | – | 23% | inactive | inactive | 4% | – | – | COc1ccc(-c2ccc3c(=O)n(C)c4cc(-c5cccc(Br)c5)nn4c3c2)cc1 |
| – | – | 6% | – | – | 2% | – | – | O=c1[nH]c2cc(-c3ccccc3)nn2c2cc(-c3ccccc3)ccc12 |
| – | – | 48% | inactive | inactive | 6% | – | – | COc1ccc(-c2ccc3c(=O)n(C)c4cc(-c5cccc(OC)c5)nn4c3c2)cc1 |
| – | – | 31% | inactive | inactive | 9% | – | – | COc1ccc(-c2ccc3c(=O)n(C)c4cc(-c5cccc(Cl)c5)nn4c3c2)cc1 |
| – | – | 33% | inactive | inactive | 11% | 60% | 60% | Cc1ccc2c(=O)n(C)c3cc(-c4ccc(Cl)cc4)nn3c2c1 |
| – | – | 38% | inactive | inactive | 16% | – | – | Cc1ccc2c(=O)n(C)c3cc(-c4cccc(F)c4)nn3c2c1 |
| – | – | 33% | – | – | 4% | – | – | Cn1c(=O)c2ccc(-c3cnc4ccccc4c3)cc2n2nc(-c3ccccc3)cc12 |
| – | – | 8% | – | – | 3% | – | – | CC(=O)n1c(=O)c2ccc(-c3ccccc3)cc2n2nc(-c3ccccc3)cc12 |
| 645 nM | 1110 nM | – | inactive | inactive | – | 60% | 60% | Cn1c(=O)c2ccc(-c3cccnc3)cc2n2nc(-c3ccc(Cl)cc3)cc12 |
| > 10000 nM | > 10000 nM | – | inactive | inactive | – | – | – | COc1cccc(-c2cc3n(C)c(=O)c4ccc(-c5ccccc5)cc4n3n2)c1 |
| – | – | 39% | inactive | inactive | 2% | – | – | Cn1c(=O)c2ccc(-c3ccccc3)cc2n2nc(-c3cccc(F)c3)cc12 |
| – | – | 34% | – | – | 9% | – | – | Cn1c(=O)c2ccc(-c3ccc4cc[nH]c4c3)cc2n2nc(-c3ccccc3)cc12 |
| 1250 nM | 847 nM | – | inactive | inactive | – | 60% | 60% | Cn1c(=O)c2ccc(-c3cccc(S(N)(=O)=O)c3)cc2n2nc(-c3ccc(Cl)cc3)cc12 |
| 293 nM | 564 nM | – | inactive | inactive | – | – | – | Cn1c(=O)c2ccc(-c3cccnc3)cc2n2nc(-c3cccc(Cl)c3)cc12 |
| – | – | 8% | – | – | 4% | – | – | O=c1[nH]c2cc(-c3ccccc3)nn2c2cc(-c3cccnc3)ccc12 |
| 165 nM | 852 nM | – | inactive | inactive | – | – | – | Cn1c(=O)c2ccc(-c3cccnc3)cc2n2nc(-c3ccccc3)cc12 |
| – | – | 19% | inactive | inactive | 7% | – | – | Cn1c(=O)c2ccc(-c3ccccc3)cc2n2nc(-c3cccc(Cl)c3)cc12 |
| 247 nM | 1560 nM | – | inactive | inactive | – | – | – | Cn1c(=O)c2ccc(-c3cccnc3)cc2n2nc(-c3cccc(F)c3)cc12 |
| – | – | 3% | – | – | 0% | – | – | O=c1c2ccc(-c3ccccc3)cc2n2nc(-c3ccccc3)cc2n1CCO |
| > 10000 nM | > 10000 nM | – | inactive | inactive | – | – | – | Cn1c(=O)c2ccc(-c3cccnc3)cc2n2nc(-c3cccc(Br)c3)cc12 |
| – | – | 59% | inactive | inactive | 17% | – | – | Cc1ccc2c(=O)n(C)c3cc(-c4ccccc4)nn3c2c1 |
| – | – | 49% | inactive | inactive | 7% | – | – | Cc1cccc(-c2cc3n(C)c(=O)c4ccc(-c5ccccc5)cc4n3n2)c1 |
| 509 nM | 1770 nM | – | – | – | – | – | – | Cn1c(=O)c2ccc(-c3ccncc3)cc2n2nc(-c3ccccc3)cc12 |
